Experimental findings from ChEMBL document CHEMBL3751750, “2-Amino-4-bis(aryloxybenzyl)aminobutanoic acids: A novel scaffold for inhibition of ASCT2-mediated glutamine transport” (Bioorg Med Chem Lett, 2016) are described below.

Assay [1] concerns the target T1, Amino acid transporter (Rattus norvegicus, UniProt Q9Z1J7).
T1 sequence (Q9Z1J7 whole entry): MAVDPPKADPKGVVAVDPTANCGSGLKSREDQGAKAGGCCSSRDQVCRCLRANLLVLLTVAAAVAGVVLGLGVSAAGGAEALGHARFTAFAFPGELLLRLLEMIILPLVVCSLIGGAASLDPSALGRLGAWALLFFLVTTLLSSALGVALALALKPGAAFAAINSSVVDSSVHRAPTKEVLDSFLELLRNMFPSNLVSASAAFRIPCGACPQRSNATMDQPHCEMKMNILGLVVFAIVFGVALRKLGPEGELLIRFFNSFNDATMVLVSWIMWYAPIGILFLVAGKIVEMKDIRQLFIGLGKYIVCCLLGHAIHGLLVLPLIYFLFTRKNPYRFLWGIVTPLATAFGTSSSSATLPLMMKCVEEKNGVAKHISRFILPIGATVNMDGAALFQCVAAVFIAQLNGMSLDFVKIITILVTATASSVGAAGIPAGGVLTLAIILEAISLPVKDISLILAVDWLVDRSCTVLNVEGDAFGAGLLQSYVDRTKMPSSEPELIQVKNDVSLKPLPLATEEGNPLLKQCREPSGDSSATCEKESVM
Description: Inhibition of ASCT2-mediated glutamine transport in rat C6 cells using [3H]-glutamine after 15 mins by scintillation counting. It counts as cell-based.

For assay [2], the target named is T2, Neutral amino acid transporter B(0) (Homo sapiens, UniProt Q15758).
T2 sequence (Q15758 whole entry): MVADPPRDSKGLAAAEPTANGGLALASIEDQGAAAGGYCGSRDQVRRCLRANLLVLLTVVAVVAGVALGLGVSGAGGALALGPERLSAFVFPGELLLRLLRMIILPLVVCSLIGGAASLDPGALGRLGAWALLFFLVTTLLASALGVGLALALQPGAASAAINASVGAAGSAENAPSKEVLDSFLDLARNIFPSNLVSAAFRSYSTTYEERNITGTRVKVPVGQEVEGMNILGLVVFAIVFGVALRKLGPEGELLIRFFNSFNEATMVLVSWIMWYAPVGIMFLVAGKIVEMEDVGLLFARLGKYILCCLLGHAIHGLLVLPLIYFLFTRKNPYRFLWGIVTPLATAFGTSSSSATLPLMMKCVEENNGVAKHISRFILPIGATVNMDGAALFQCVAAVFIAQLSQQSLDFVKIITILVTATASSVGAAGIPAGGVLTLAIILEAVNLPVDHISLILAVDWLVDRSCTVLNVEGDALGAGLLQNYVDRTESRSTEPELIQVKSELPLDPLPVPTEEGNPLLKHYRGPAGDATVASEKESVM
Description: Inhibition of ASCT2-mediated glutamine transport in human HEK293 cells using [3H]-glutamine after 15 mins by scintillation counting. Format: cell-based.

The target in assay [3] is T2, Neutral amino acid transporter B(0). Description: Inhibition of ASCT2 (unknown origin)-mediated glutamine transport.

Broadly, the IC50 is the concentration at which inhibition is half-maximal.

As for `N[C@@H](CCN(Cc1ccccc1OCc1ccc(Cl)cc1)Cc1ccccc1OCc1ccc(Cl)cc1)C(=O)O`, the figures for the half-inhibitory concentration (IC50) in assay [1] and in assay [2] were 20.1 µM and 33.7 µM, respectively. As for `N[C@@H](CCN(Cc1ccccc1OCc1ccccn1)Cc1ccccc1OCc1ccccn1)C(=O)O`, the IC50 came to 8.4 µM in assay [1] and 48.3 µM in assay [2]. In assay [1], `N[C@@H](CCN(Cc1ccccc1OCc1ccccc1F)Cc1ccccc1OCc1ccccc1F)C(=O)O` registered an IC50 of 3.3 µM.

In the case of `N[C@@H](COC(=O)c1ccc(-c2ccccc2)cc1)C(=O)O`, inhibition in assay [3] was half-maximal at 30 µM (IC50). As to `N[C@@H](CCN(Cc1ccccc1Oc1ccc(Cl)cc1)Cc1ccccc1Oc1ccc(Cl)cc1)C(=O)O`, the IC50 in assay [2] amounted to 26 µM. As for `N[C@@H](CCN(Cc1ccccc1Oc1ccc(F)cc1)Cc1ccccc1Oc1ccc(F)cc1)C(=O)O`, the values for the IC50 in assay [1] and in assay [2] were 10.5 µM and 142 µM, respectively. With `N[C@@H](CCN(Cc1ccccc1OCc1ccc(F)cc1)Cc1ccccc1OCc1ccc(F)cc1)C(=O)O`, in assay [1], the IC50 was determined as 11.2 µM.

With `N#Cc1cc(Br)ccc1/N=c1\ssnc1Cl`, in assay [3], the IC50 amounted to 3.7 µM. As to `COc1ccc(Oc2ccccc2CN(CC[C@H](N)C(=O)O)Cc2ccccc2Oc2ccc(OC)cc2)cc1`, the figures for the IC50 in assay [1] and in assay [2] were 8.7 µM and 11.9 µM, respectively. The corresponding values for `N[C@@H](CCN(Cc1ccccc1Oc1ccccn1)Cc1ccccc1Oc1ccccn1)C(=O)O` are 68.2 µM and 59.6 µM. On to `N[C@@H](CCN(Cc1ccccc1Oc1ccccc1F)Cc1ccccc1Oc1ccccc1F)C(=O)O`, for which the IC50 is 1.8 µM in assay [1] and 33.8 µM in assay [2]. The matching figures for `N[C@@H](CCN(Cc1ccccc1OCc1cccc(Cl)c1)Cc1ccccc1OCc1cccc(Cl)c1)C(=O)O`: 12.7 µM and 50.8 µM.

Consider `Cc1ccc(COc2ccccc2CN(CC[C@H](N)C(=O)O)Cc2ccccc2OCc2ccc(C)cc2)cc1`, for which the values for the IC50 in assay [1] and in assay [2] were 86.4 µM and 17.5 µM, respectively. As to `N[C@@H](CCN(Cc1ccccc1Oc1cccc(F)c1)Cc1ccccc1Oc1cccc(F)c1)C(=O)O`, the midpoint of inhibition in assay [1], the IC50, lay at 36.3 µM. As to `N[C@@H](CCC(=O)Nc1ccc([N+](=O)[O-])cc1)C(=O)O`, the IC50 in assay [3] stood at 1000 µM; in assay [2], 1200 µM. Turning to `COc1cccc(Oc2ccccc2CN(CC[C@H](N)C(=O)O)Cc2ccccc2Oc2cccc(OC)c2)c1`, the IC50 in assay [1] amounted to 1.3 µM; in assay [2], 57.2 µM. The corresponding values for `Cc1ccccc1COc1ccccc1CN(CC[C@H](N)C(=O)O)Cc1ccccc1OCc1ccccc1C` are 41.7 µM and 25.6 µM. The corresponding values for `COc1cccc(COc2ccccc2CN(CC[C@H](N)C(=O)O)Cc2ccccc2OCc2cccc(OC)c2)c1` are 5.1 µM and 7.2 µM.

For the compound `N[C@@H](CCN(Cc1ccccc1OCc1cccnc1)Cc1ccccc1OCc1cccnc1)C(=O)O`, the results for the IC50 in assay [1] and in assay [2] were 17.3 µM and 69.1 µM, respectively.

Take `N[C@@H](CCN(Cc1ccccc1OCc1ccccc1Cl)Cc1ccccc1OCc1ccccc1Cl)C(=O)O`: the IC50 was determined as 18.4 µM in assay [1] and 40.1 µM in assay [2].
